Measured values reported in PubChem BioAssay (NCI).
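Test compounds were applied to cells in 96-well plates for 48 hours at 5 doses. GI50 marks 50% less growth. Definition used: TGI = concentration required for complete inhibition of growth.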

Tests used:
Experiment in all cases: inhibition of tumour cell growth, NCI panel, 48 h
NCI-H226 lung = system: NCI-H226 lung
TK-10 renal = system: TK-10 renal
ACHN renal = system: ACHN renal
CAKI-1 renal = system: CAKI-1 renal
NCI/ADR-RES ovarian = system: NCI/ADR-RES ovarian
COLO 205 colon = system: COLO 205 colon
PC-3 prostate = system: PC-3 prostate
NCI-H23 lung = system: NCI-H23 lung
OVCAR-8 ovarian = system: OVCAR-8 ovarian
EKVX NSCLC = system: EKVX NSCLC
IGROV1 ovarian = system: IGROV1 ovarian
UO-31 renal = system: UO-31 renal
DU-145 prostate = system: DU-145 prostate
HCT-15 colon = system: HCT-15 colon
HT29 colon = system: HT29 colon
OVCAR-3 ovarian = system: OVCAR-3 ovarian
SF-295 CNS = system: SF-295 CNS
LOX IMVI melanoma = system: LOX IMVI melanoma
NCI-H460 lung = system: NCI-H460 lung
SN12C renal = system: SN12C renal
HL-60(TB) leukemia = system: HL-60(TB) leukemia
HCC-2998 colon = system: HCC-2998 colon
RPMI-8226 leukemia = system: RPMI-8226 leukemia
HCT-116 colon = system: HCT-116 colon
SF-539 CNS = system: SF-539 CNS
SK-MEL-5 melanoma = system: SK-MEL-5 melanoma
SNB-19 CNS = system: SNB-19 CNS
K-562 leukemia = system: K-562 leukemia
SK-OV-3 ovarian = system: SK-OV-3 ovarian
OVCAR-5 ovarian = system: OVCAR-5 ovarian
BT-549 breast = system: BT-549 breast
UACC-257 melanoma = system: UACC-257 melanoma
SF-268 CNS = system: SF-268 CNS
U251 CNS = system: U251 CNS
MALME-3M melanoma = system: MALME-3M melanoma
MCF7 breast = system: MCF7 breast
HOP-92 NSCLC = system: HOP-92 NSCLC
RXF 393 renal = system: RXF 393 renal
SK-MEL-28 melanoma = system: SK-MEL-28 melanoma
SK-MEL-2 melanoma = system: SK-MEL-2 melanoma
MDA-MB-231 breast = system: MDA-MB-231 breast
HS 578T breast = system: HS 578T breast
MDA-MB-468 breast = system: MDA-MB-468 breast
SW-620 colon = system: SW-620 colon
A549 NSCLC = system: A549 NSCLC
OVCAR-4 ovarian = system: OVCAR-4 ovarian
HOP-62 NSCLC = system: HOP-62 NSCLC
MOLT-4 leukemia = system: MOLT-4 leukemia
SR leukemia = system: SR leukemia
A498 renal = system: A498 renal
786-0 renal = system: 786-0 renal
MDA-MB-435 = system: MDA-MB-435
M14 melanoma = system: M14 melanoma
KM12 colon = system: KM12 colon
NCI-H522 lung = system: NCI-H522 lung
UACC-62 melanoma = system: UACC-62 melanoma
SNB-75 CNS = system: SNB-75 CNS
CCRF-CEM leukemia = system: CCRF-CEM leukemia

Which results are given for `Cn1cc(-c2nc(N)nnc2-c2c[nH]c3ccc(F)cc23)c2cc(Br)cnc21`?
GI50 (NCI-H226 lung): 109 nM; TGI (NCI-H226 lung): 12700 nM; GI50 (TK-10 renal): 10600 nM; TGI (TK-10 renal): 25800 nM; GI50 (ACHN renal): 91.1 nM; TGI (ACHN renal): 15400 nM; GI50 (CAKI-1 renal): 76.4 nM; TGI (CAKI-1 renal): 17000 nM; GI50 (NCI/ADR-RES ovarian): 155 nM; TGI (NCI/ADR-RES ovarian): 1170 nM; GI50 (COLO 205 colon): 73.7 nM; TGI (COLO 205 colon): 886 nM; GI50 (PC-3 prostate): 94.9 nM; TGI (PC-3 prostate): 48900 nM; GI50 (NCI-H23 lung): 198 nM; TGI (NCI-H23 lung): 11200 nM; GI50 (OVCAR-8 ovarian): 192 nM; TGI (OVCAR-8 ovarian): 12400 nM; GI50 (EKVX NSCLC): 279 nM; TGI (EKVX NSCLC): 17700 nM; GI50 (IGROV1 ovarian): 72.7 nM; TGI (IGROV1 ovarian): 14300 nM; GI50 (UO-31 renal): 276 nM; TGI (UO-31 renal): 13200 nM; GI50 (DU-145 prostate): 144 nM; TGI (DU-145 prostate): 14100 nM; GI50 (HCT-15 colon): 52.3 nM; TGI (HCT-15 colon): 11600 nM; GI50 (HT29 colon): 50.6 nM; TGI (HT29 colon): 615 nM; GI50 (OVCAR-3 ovarian): 53 nM; TGI (OVCAR-3 ovarian): 15700 nM; GI50 (SF-295 CNS): 48.8 nM; TGI (SF-295 CNS): 12300 nM; GI50 (LOX IMVI melanoma): 63.5 nM; TGI (LOX IMVI melanoma): 14900 nM; GI50 (NCI-H460 lung): 45.8 nM; TGI (NCI-H460 lung): 3770 nM; GI50 (SN12C renal): 204 nM; TGI (SN12C renal): 13800 nM; GI50 (HL-60(TB) leukemia): 39 nM; TGI (HL-60(TB) leukemia): 290 nM; GI50 (HCC-2998 colon): 156 nM; TGI (HCC-2998 colon): 5770 nM; GI50 (RPMI-8226 leukemia): 403 nM; TGI (RPMI-8226 leukemia): > 100000 nM; GI50 (HCT-116 colon): 52.1 nM; TGI (HCT-116 colon): 13100 nM; GI50 (SF-539 CNS): 46.2 nM; TGI (SF-539 CNS): 405 nM; GI50 (SK-MEL-5 melanoma): 40.2 nM; TGI (SK-MEL-5 melanoma): 1690 nM; GI50 (SNB-19 CNS): 139 nM; TGI (SNB-19 CNS): 12700 nM; GI50 (K-562 leukemia): 39.4 nM; TGI (K-562 leukemia): > 100000 nM; GI50 (SK-OV-3 ovarian): 126 nM; TGI (SK-OV-3 ovarian): 19600 nM; GI50 (OVCAR-5 ovarian): 217 nM; TGI (OVCAR-5 ovarian): 14600 nM; GI50 (BT-549 breast): 91.8 nM; TGI (BT-549 breast): 10100 nM; GI50 (UACC-257 melanoma): 11800 nM; TGI (UACC-257 melanoma): 25100 nM; GI50 (SF-268 CNS): 1460 nM; TGI (SF-268 CNS): 18900 nM; GI50 (U251 CNS): 57.4 nM; TGI (U251 CNS): 13000 nM; GI50 (MALME-3M melanoma): 52.5 nM; TGI (MALME-3M melanoma): 18800 nM; GI50 (MCF7 breast): 35.8 nM; TGI (MCF7 breast): 12300 nM; GI50 (HOP-92 NSCLC): 5930 nM; TGI (HOP-92 NSCLC): 30700 nM; GI50 (RXF 393 renal): 47.1 nM; TGI (RXF 393 renal): 236 nM; GI50 (SK-MEL-28 melanoma): 161 nM; TGI (SK-MEL-28 melanoma): 19500 nM; GI50 (SK-MEL-2 melanoma): 87.2 nM; TGI (SK-MEL-2 melanoma): 13600 nM; GI50 (MDA-MB-231 breast): 121 nM; TGI (MDA-MB-231 breast): 8260 nM; GI50 (HS 578T breast): 49.6 nM; TGI (HS 578T breast): 25800 nM; GI50 (MDA-MB-468 breast): 27.2 nM; TGI (MDA-MB-468 breast): 124 nM; GI50 (SW-620 colon): 48.7 nM; TGI (SW-620 colon): 15200 nM; GI50 (A549 NSCLC): 172 nM; TGI (A549 NSCLC): > 48400 nM; GI50 (OVCAR-4 ovarian): 3560 nM; TGI (OVCAR-4 ovarian): 33000 nM; GI50 (HOP-62 NSCLC): 85.8 nM; TGI (HOP-62 NSCLC): 19200 nM; GI50 (MOLT-4 leukemia): 161 nM; TGI (MOLT-4 leukemia): 14800 nM; GI50 (SR leukemia): 38.8 nM; TGI (SR leukemia): > 54900 nM; GI50 (A498 renal): 13600 nM; TGI (A498 renal): 27100 nM; GI50 (786-0 renal): 145 nM; TGI (786-0 renal): 18000 nM; GI50 (MDA-MB-435): 26.2 nM; TGI (MDA-MB-435): 78.2 nM; GI50 (M14 melanoma): 87 nM; TGI (M14 melanoma): 16200 nM; GI50 (KM12 colon): 50.8 nM; TGI (KM12 colon): 13400 nM; GI50 (NCI-H522 lung): 19.3 nM; TGI (NCI-H522 lung): 231 nM; GI50 (UACC-62 melanoma): 32.3 nM; TGI (UACC-62 melanoma): 12800 nM; GI50 (SNB-75 CNS): 47.4 nM; TGI (SNB-75 CNS): 14100 nM; GI50 (CCRF-CEM leukemia): 109 nM; TGI (CCRF-CEM leukemia): > 67100 nM
